Consider 43 compounds from patent publication US20150239889A1, “PYRAZOLOPYRIMIDINE COMPOUND” (MITSUBISHI TANABE PHARMA CORPORATION, priority 2012, published 2015).

The target of one experiment is T1, human HIF-PHD3 (Homo sapiens, UniProt Q9H6Z9).
T1 construct: purchased CrystalGenomics Ltd
Description: HIF-PHD inhibition assay (fluorescence polarization), human HIF-PHD3. Type of experiment: biochemical. The note with it: 2-oxoglutaric acid 166 μmol/L. A digest of the protocol:
(§1)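 Fluorescence polarization was read before and after adding enzyme, and the difference (mP value) taken as enzyme activity. The tracer carried a FAM (5′-fluoresceinamide) tag linked via aminocaproic acid.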
(In general: Polarisation of emitted light reports the rotation of a fluorescent probe.)

The test system of the next experiment is Hep3B cells. Description: EPO production assay (ELISA of culture supernatant). Format: cell-based. The note with it: Homo sapiens, 3 μmol/L test compound, 48 hours, relative to control (0.1% DMSO), read-out: EPO production stimulation rate with 3 μmol/L test compound. A digest of the protocol: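 Hep3B cells (40000/well) switched to MEM with 0.5% FBS and treated with compound (0.1% DMSO) for 48 h at 37 °C. Supernatant EPO measured by ELISA; value is fold stimulation at 3 μmol/L compound over unstimulated control.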
Background: ELISA stands for enzyme-linked immunosorbent assay.

The target in another experiment is T2, human HIF-PHD2 (Homo sapiens, UniProt Q9GZT9).
T2 construct: purchased CrystalGenomics Ltd
Description: HIF-PHD inhibition assay (fluorescence polarization), human HIF-PHD2. Type of experiment: biochemical. The settings on record: 2-oxoglutaric acid 3.33 μmol/L. Summed up: as §1

In general, IC50 refers to the point on the concentration scale where inhibition reaches its midpoint. A lower IC50 goes with greater potency.

T2 sequence (Q9GZT9 2-426 limits assumed): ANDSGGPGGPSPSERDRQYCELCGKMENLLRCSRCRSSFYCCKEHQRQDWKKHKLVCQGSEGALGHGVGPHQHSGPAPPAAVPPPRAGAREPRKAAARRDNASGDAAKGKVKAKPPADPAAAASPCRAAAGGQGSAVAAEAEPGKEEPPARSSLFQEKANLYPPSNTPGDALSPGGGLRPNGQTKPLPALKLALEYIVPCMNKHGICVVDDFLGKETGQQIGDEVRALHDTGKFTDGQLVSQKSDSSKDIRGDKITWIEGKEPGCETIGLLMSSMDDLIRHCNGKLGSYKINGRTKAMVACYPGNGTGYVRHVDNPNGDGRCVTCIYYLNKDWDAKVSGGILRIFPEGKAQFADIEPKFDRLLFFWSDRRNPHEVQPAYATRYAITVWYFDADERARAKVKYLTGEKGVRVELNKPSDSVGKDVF
T1 sequence (Q9H6Z9 whole entry): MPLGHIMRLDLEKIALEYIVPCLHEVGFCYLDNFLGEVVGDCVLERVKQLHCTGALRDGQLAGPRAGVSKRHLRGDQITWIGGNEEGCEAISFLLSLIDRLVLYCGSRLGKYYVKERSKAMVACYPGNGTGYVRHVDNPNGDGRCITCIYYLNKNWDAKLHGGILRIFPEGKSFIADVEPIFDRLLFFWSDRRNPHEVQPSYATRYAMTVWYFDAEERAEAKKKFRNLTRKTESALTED

In the case of `Cc1ccccc1-c1ccc(Cn2ncc3nc(-n4cc(C(=O)O)cn4)nc(O)c32)cc1` [Example 57], the IC50 against human HIF-PHD3 was 0.13 µM; against human HIF-PHD2, 0.015 µM. Moreover, the fold induction at 3 µM with Hep3B cells was 9.1.
The like results for `Cc1ccccc1-c1ccc(Cn2ncc3nc(-n4cc(C(=O)O)cn4)nc(O)c32)cc1F` [Example 102] were, in that order, 0.15 µM, 0.019 µM and 9.8.
On the same counts, the results for `Cc1nn(CCC2CCCC2)c2c(O)nc(-n3cc(C(=O)O)cn3)nc12` [Example 476] are 0.57 µM, 0.036 µM and 2.7.
The like results for `CC(C)(Cn1ncc2nc(-n3cc(C(=O)O)cn3)nc(O)c21)Oc1ccc(Cl)cc1` [Example 210] were, in that order, 0.22 µM, 0.021 µM and 19.
Regarding `CC(C)(C)c1ccc(OCCn2ncc3nc(-n4cc(C(=O)O)cn4)nc(O)c32)cc1` [Example 204], the IC50 on human HIF-PHD3 worked out at 0.65 µM; on human HIF-PHD2, 0.019 µM. Also, in the experiment on Hep3B cells, the fold induction at 3 µM worked out at 12.
On the same counts, the results for `Cc1ccccc1-c1ccc(Cn2ncc3nc(-n4cc(C(=O)O)cn4)nc(O)c32)c(F)c1` [Example 83] are 0.24 µM, 0.033 µM and 6.2.
The like results for `O=C(O)c1cnn(-c2nc(O)c3c(cnn3Cc3cccc(-c4ccccc4)c3F)n2)c1` [Example 52] were, in that order, 0.25 µM, 0.022 µM and 3.3.
On to `O=C(O)c1cnn(-c2nc(O)c3c(cnn3CCC(c3ccccc3)c3ccccc3)n2)c1` [Example 134], for which the IC50 at human HIF-PHD3 was found to be 0.36 µM; against human HIF-PHD2, 0.023 µM. Moreover, the fold induction at 3 µM in the experiment with Hep3B cells was 25.
The like results for `C[C@@H](c1ccc(C(F)(F)F)cc1)n1ncc2nc(-n3cc(C(=O)O)cn3)nc(O)c21` [Example 19] were, in that order, 0.72 µM, 0.026 µM and 10.
Turning to `O=C(O)c1cnn(-c2nc(O)c3c(n2)c(F)nn3Cc2ccc3ccccc3c2)c1` [Example 216], the IC50 was determined as 0.3 µM at human HIF-PHD3 and 0.015 µM at human HIF-PHD2. Further, the fold induction at 3 µM in the experiment with Hep3B cells is 1.5.
In the case of `CC(C)(C)[C@H]1CC[C@H](Cn2ncc3nc(-n4cc(C(=O)O)cn4)nc(O)c32)CC1` [Example 142], the IC50 against human HIF-PHD3 came to 0.36 µM; against human HIF-PHD2, 0.025 µM. The fold induction at 3 µM in the experiment with Hep3B cells turned out to be 15.
On the same counts, the results for `O=C(O)c1cnn(-c2nc(O)c3c(cnn3Cc3ccc4ccccc4c3)n2)c1` [Example 29] are 0.2 µM, 0.037 µM and 4.2.
On the same counts, the results for `CC[C@H]1CC[C@H](Cn2ncc3nc(-n4cc(C(=O)O)cn4)nc(O)c32)CC1` [Example 140] are 0.83 µM, 0.014 µM and 6.2.
The like results for `O=C(O)c1cnn(-c2nc(O)c3c(cnn3C[C@H]3CC[C@H](C(F)(F)F)CC3)n2)c1` [Example 137] were, in that order, 0.26 µM, 0.02 µM and 9.8.
With `O=C(O)c1cnn(-c2nc(O)c3c(cnn3CCCOc3ccc(OCc4ccccc4)c(F)c3)n2)c1` [Example 181], the IC50 at human HIF-PHD3 was 0.22 µM; at human HIF-PHD2, 0.035 µM. In addition, in the experiment with Hep3B cells, the fold induction at 3 µM was 34.
The like results for `O=C(O)c1cnn(-c2nc(O)c3c(cnn3CC34CC5CC(CC(C5)C3)C4)n2)c1` [Example 381] were, in that order, 0.5 µM, 0.046 µM and 6.3.
`O=C(O)c1cnn(-c2nc(O)c3nn(Cc4ccc5ccccc5c4)cc3n2)c1` [Example 242]: the results for the IC50 against human HIF-PHD3 and against human HIF-PHD2 were 0.15 µM and 0.017 µM, respectively. Further, in the experiment on Hep3B cells, the fold induction at 3 µM stood at 1.7.
The like results for `CC(C)(C)c1cccc(OCCCn2ncc3nc(-n4cc(C(=O)O)cn4)nc(O)c32)c1` [Example 179] were, in that order, 0.16 µM, 0.045 µM and 14.
On the same counts, the results for `O=C(O)c1cnn(-c2nc(O)c3c(cnn3CC3(c4ccccc4)CCCCC3)n2)c1` [Example 124] are 0.93 µM, 0.055 µM and 3.4.
On the same counts, the results for `O=C(O)c1cnn(-c2nc(O)c3c(cnn3CC3CCC4(CC3)CC4)n2)c1` [Example 378] are 0.29 µM, 0.023 µM and 9.6.
On to `O=C(O)c1cnn(-c2nc(O)c3c(cnn3CCCOc3ccc4c(c3)CCCC4)n2)c1` [Example 188], for which the IC50 at human HIF-PHD3 was found to be 0.54 µM; against human HIF-PHD2, 0.014 µM. In the experiment on Hep3B cells, the fold induction at 3 µM came to 23.
The like results for `O=C(O)c1cnn(-c2nc(O)c3c(cnn3Cc3ccc4cc(F)ccc4c3)n2)c1` [Example 32] were, in that order, 0.32 µM, 0.014 µM and 5.7.
The like results for `CC[C@@H](c1ccccc1)n1ncc2nc(-n3cc(C(=O)O)cn3)nc(O)c21` [Example 24] were, in that order, 0.99 µM, 0.044 µM and 2.8.
As for `Cc1cc(Cn2ncc3nc(-n4cc(C(=O)O)cn4)nc(O)c32)ccc1-c1ccccc1F` [Example 94], the IC50 amounted to 0.3 µM against human HIF-PHD3 and 0.065 µM on human HIF-PHD2. In addition, in the experiment with Hep3B cells, the fold induction at 3 µM came to 17.
On the same counts, the results for `O=C(O)c1cnn(-c2nc(O)c3c(cnn3CCCCCc3ccccc3)n2)c1` [Example 166] are 0.13 µM, 0.031 µM and 8.1.
Consider `O=C(O)c1cnn(-c2nc(O)c3c(cnn3CCOc3ccc4ccccc4c3)n2)c1` [Example 207], for which the IC50 worked out at 0.16 µM at human HIF-PHD3 and 0.013 µM at human HIF-PHD2. Besides, in the experiment with Hep3B cells, the fold induction at 3 µM amounted to 2.5.
The like results for `O=C(O)c1cnn(-c2nc(O)c3c(n2)c(F)nn3CCC2CCCC2)c1` [Example 471] were, in that order, 0.17 µM, 0.015 µM and 1.4.
Turning to `Cc1nn([C@@H](C)c2ccc3ccccc3c2)c2c(O)nc(-n3cc(C(=O)O)cn3)nc12` [Example 454], the figures for the IC50 against human HIF-PHD3 and on human HIF-PHD2 were 0.73 µM and 0.03 µM, respectively. Moreover, the fold induction at 3 µM in the experiment on Hep3B cells came to 2.7.
The like results for `O=C(O)c1cnn(-c2nc(O)c3c(cnn3CCCOc3ccc4ccccc4c3)n2)c1` [Example 187] were, in that order, 0.22 µM, 0.012 µM and 10.
On the same counts, the results for `Cc1ccc2cc(CCn3ncc4nc(-n5cc(C(=O)O)cn5)nc(O)c43)ccc2c1C` [Example 129] are 0.16 µM, 0.021 µM and 162.
With `O=C(O)c1cnn(-c2nc(O)c3c(cnn3Cc3cccc(OC(F)(F)F)c3)n2)c1` [Example 11], the results for the IC50 against human HIF-PHD3 and on human HIF-PHD2 were 0.47 µM and 0.062 µM, respectively. Besides, in the experiment with Hep3B cells, the fold induction at 3 µM amounted to 2.5.
For the compound `O=C(O)c1cnn(-c2nc(O)c3c(cnn3Cc3ccc(-c4cccc(F)c4)cc3)n2)c1` [Example 63], the IC50 against human HIF-PHD3 was 0.11 µM; at human HIF-PHD2 it was 0.014 µM. The fold induction at 3 µM with Hep3B cells was 18.
On to `C[C@@H](c1ccc(-c2ccccc2)cc1)n1ncc2nc(-n3cc(C(=O)O)cn3)nc(O)c21` [Example 110], for which the IC50 amounted to 0.063 µM against human HIF-PHD3 and 0.027 µM against human HIF-PHD2. Moreover, the fold induction at 3 µM in the experiment on Hep3B cells was determined as 56.
Consider `O=C(O)c1cnn(-c2nc(O)c3c(cnn3Cc3cccc(-c4cccc(F)c4)c3)n2)c1` [Example 44], for which the IC50 was found to be 0.39 µM against human HIF-PHD3 and 0.049 µM at human HIF-PHD2. For the same compound, the fold induction at 3 µM with Hep3B cells is 4.9.
Regarding `O=C(O)c1cnn(-c2nc(O)c3c(cnn3C[C@H]3CC[C@H](Oc4ccccc4F)CC3)n2)c1` [Example 146], the IC50 against human HIF-PHD3 was found to be 0.3 µM; on human HIF-PHD2, 0.015 µM. The fold induction at 3 µM with Hep3B cells is 2.6.
Regarding `C[C@H]1CC[C@H](Cn2ncc3nc(-n4cc(C(=O)O)cn4)nc(O)c32)CC1` [Example 139], the results for the IC50 on human HIF-PHD3 and on human HIF-PHD2 were 0.52 µM and 0.03 µM, respectively. Besides, the fold induction at 3 µM with Hep3B cells came to 1.6.
The like results for `O=C(O)c1cnn(-c2nc(O)c3c(cnn3CCCOc3ccc(C(F)(F)F)cc3Cl)n2)c1` [Example 176] were, in that order, 0.17 µM, 0.019 µM and 22.
For the compound `C[C@H](c1ccccc1)n1ncc2nc(-n3cc(C(=O)O)cn3)nc(O)c21` [Example 16], the IC50 against human HIF-PHD3 turned out to be 0.82 µM; at human HIF-PHD2 it was 0.066 µM. In the experiment with Hep3B cells, the fold induction at 3 µM worked out at 3.1.
The like results for `O=C(O)c1cnn(-c2nc(O)c3c(cnn3Cc3ccc(-c4ccc(F)cc4F)nc3)n2)c1` [Example 104] were, in that order, 0.11 µM, 0.01 µM and 5.4.
Regarding `O=C(O)c1cnn(-c2nc(O)c3c(cnn3Cc3ccc(Cl)c(F)c3)n2)c1` [Example 7], the IC50 on human HIF-PHD3 came out at 0.32 µM; against human HIF-PHD2, 0.023 µM. In addition, the fold induction at 3 µM in the experiment on Hep3B cells was determined as 3.4.
For the compound `O=C(O)c1cnn(-c2nc(O)c3nn(Cc4ccc(-c5ccccc5)cc4F)cc3n2)c1` [Example 245], the IC50 turned out to be 0.068 µM against human HIF-PHD3 and 0.0023 µM at human HIF-PHD2. Also, the fold induction at 3 µM in the experiment on Hep3B cells turned out to be 6.2.
As for `O=C(O)c1cnn(-c2nc(O)c3c(cnn3Cc3cccc(C(F)(F)F)c3)n2)c1` [Example 9], the IC50 against human HIF-PHD3 stood at 0.41 µM; at human HIF-PHD2, 0.033 µM. In addition, the fold induction at 3 µM in the experiment with Hep3B cells came out at 2.8.
Turning to `O=C(O)c1cnn(-c2nc(O)c3c(cnn3CCCOc3cc(C(F)(F)F)cc(C(F)(F)F)c3)n2)c1` [Example 183], the values for the IC50 at human HIF-PHD3 and on human HIF-PHD2 were 0.34 µM and 0.063 µM, respectively. Moreover, the fold induction at 3 µM in the experiment on Hep3B cells came to 7.5.
